Assays:
Assay in all cases: relative viability (nuclei count vs DMSO), 5 days (fraction); higher = more cells survive
[1] = compound: CCN1C(=O)C2=CC(=C(N=C2N(C1=O)C3CC3)N)C(=O)N
In short: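 Lung cancer cell lines in 1536-well plates were exposed by pinning to five library-drug doses (not always all listed) √10 apart, following an overnight hold at 37 °C. MetaXpress counted Hoechst-stained nuclei from 4× images taken after 5 days without medium change. Viability is the median ratio of treated-well to vehicle-well nuclei across plates. Plates required control CV below 25% and at least one doubling.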

[2] = compound: CCN1C(=O)C2=CC(=C(N=C2N(C1=O)C3CC3)N)C(=O)N + C[C@@H](Oc1cc(-c2cnn(C3CCNCC3)c2)cnc1N)c1c(Cl)ccc(F)c1Cl [Crizotinib] (partner 1 µM)
In short: (§1)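 Lung cancer cell lines in 1536-well plates got either a single drug or a fixed anchor-drug dose together with five library-drug doses (not always all listed) in √10 steps, by pin tool, on the day after seeding. Nuclei were counted after 5 days, and relative viability is the treated-to-vehicle ratio of nuclei counts. Values are medians of duplicate plates.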

[3] = compound: CCN1C(=O)C2=CC(=C(N=C2N(C1=O)C3CC3)N)C(=O)N + O=C(CCCCCCC(=O)Nc1ccccc1)NO [Vorinostat] (partner 1 µM)
In short: as §1

[4] = compound: CCN1C(=O)C2=CC(=C(N=C2N(C1=O)C3CC3)N)C(=O)N + C[C@]1(O)C[C@@H](c2nc(-c3ccc4ccc(-c5ccccc5)nc4c3)c3c(N)nccn32)C1 [Linsitinib] (partner 1 µM)
In short: as §1

[5] = compound: CCN1C(=O)C2=CC(=C(N=C2N(C1=O)C3CC3)N)C(=O)N + CCNC(=O)c1noc(-c2cc(C(C)C)c(O)cc2O)c1-c1ccc(CN2CCOCC2)cc1 [Luminespib] (partner 0.01 µM)
In short: as §1

In the case of HCC-78, the relative viability ([1]; 0.253 µM) is reported as 0.947, the relative viability ([1]; 0.8 µM) is reported as 0.939 and the relative viability ([1]; 2.53 µM) is reported as 1.04. It also gave a relative viability ([1]; 8 µM) of 0.994, a relative viability ([2]; first compound 0.253 µM) of 0.349 and a relative viability ([2]; first compound 0.8 µM) of 0.327. For the same cell line, the relative viability ([2]; first compound 2.53 µM) was 0.292, the relative viability ([2]; first compound 8 µM) was 0.379 and the relative viability ([3]; first compound 0.253 µM) was 0.451. The relative viability ([3]; first compound 0.8 µM) was 0.437, the relative viability ([3]; first compound 2.53 µM) was 0.437 and the relative viability ([3]; first compound 8 µM) was 0.462. The relative viability ([4]; first compound 0.253 µM) was 0.516, the relative viability ([4]; first compound 0.8 µM) was 0.434 and the relative viability ([4]; first compound 2.53 µM) was 0.482. The relative viability ([4]; first compound 8 µM) was 0.675.

Cell Line HCC-366 has a relative viability ([1]; 0.253 µM) of 0.981, a relative viability ([1]; 0.8 µM) of 0.968 and a relative viability ([1]; 2.53 µM) of 0.996. The relative viability ([1]; 8 µM) was 1.03, the relative viability ([2]; first compound 0.253 µM) was 0.615 and the relative viability ([2]; first compound 0.8 µM) was 0.6. The relative viability ([2]; first compound 2.53 µM) was 0.537, the relative viability ([2]; first compound 8 µM) was 0.968 and the relative viability ([3]; first compound 0.253 µM) was 0.363. The relative viability ([3]; first compound 0.8 µM) was 0.384, the relative viability ([3]; first compound 2.53 µM) was 0.297 and the relative viability ([3]; first compound 8 µM) was 0.277. For the same cell line, the relative viability ([4]; first compound 0.253 µM) was 0.726, the relative viability ([4]; first compound 0.8 µM) was 0.65 and the relative viability ([4]; first compound 2.53 µM) was 0.623. It also gave a relative viability ([4]; first compound 8 µM) of 0.6.

Work on HCC-827 yielded a relative viability ([1]; 0.253 µM) of 1.1, a relative viability ([1]; 0.8 µM) of 1.02 and a relative viability ([1]; 2.53 µM) of 1.03. For the same cell line, the relative viability ([1]; 8 µM) was 1.01, the relative viability ([2]; first compound 0.253 µM) was 0.933 and the relative viability ([2]; first compound 0.8 µM) was 0.98. For the same cell line, the relative viability ([2]; first compound 2.53 µM) was 0.866, the relative viability ([2]; first compound 8 µM) was 0.885 and the relative viability ([3]; first compound 0.253 µM) was 0.498. It also gave a relative viability ([3]; first compound 0.8 µM) of 0.709, a relative viability ([3]; first compound 2.53 µM) of 1 and a relative viability ([3]; first compound 8 µM) of 0.819. It also gave a relative viability ([4]; first compound 0.253 µM) of 0.954, a relative viability ([4]; first compound 0.8 µM) of 0.97 and a relative viability ([4]; first compound 2.53 µM) of 0.899. For the same cell line, the relative viability ([4]; first compound 8 µM) was 0.979, the relative viability ([5]; first compound 0.253 µM) was 0.77 and the relative viability ([5]; first compound 0.8 µM) was 0.588. The relative viability ([5]; first compound 2.53 µM) was 0.459 and the relative viability ([5]; first compound 8 µM) was 0.866.

In the case of HOP-62, the relative viability ([1]; 0.253 µM) is reported as 1.01, the relative viability ([1]; 0.8 µM) is reported as 1.03 and the relative viability ([1]; 2.53 µM) is reported as 1. The relative viability ([1]; 8 µM) was 1.03, the relative viability ([2]; first compound 0.253 µM) was 0.891 and the relative viability ([2]; first compound 0.8 µM) was 0.966. For the same cell line, the relative viability ([2]; first compound 2.53 µM) was 0.983, the relative viability ([2]; first compound 8 µM) was 0.867 and the relative viability ([3]; first compound 0.253 µM) was 0.622. For the same cell line, the relative viability ([3]; first compound 0.8 µM) was 0.71, the relative viability ([3]; first compound 2.53 µM) was 0.58 and the relative viability ([3]; first compound 8 µM) was 0.579. The relative viability ([4]; first compound 0.253 µM) was 0.989, the relative viability ([4]; first compound 0.8 µM) was 1.09 and the relative viability ([4]; first compound 2.53 µM) was 0.825. For the same cell line, the relative viability ([4]; first compound 8 µM) was 1.05, the relative viability ([5]; first compound 0.253 µM) was 1.03 and the relative viability ([5]; first compound 0.8 µM) was 0.899. For the same cell line, the relative viability ([5]; first compound 2.53 µM) was 0.926 and the relative viability ([5]; first compound 8 µM) was 0.945.

With IA-LM the relative viability ([1]; 0.253 µM) was 0.952, the relative viability ([1]; 0.8 µM) was 0.75 and the relative viability ([1]; 2.53 µM) was 0.877. It also gave a relative viability ([1]; 8 µM) of 0.825, a relative viability ([2]; first compound 0.253 µM) of 0.816 and a relative viability ([2]; first compound 0.8 µM) of 0.662. It also gave a relative viability ([2]; first compound 2.53 µM) of 0.797, a relative viability ([2]; first compound 8 µM) of 1.14 and a relative viability ([3]; first compound 0.253 µM) of 0.983. It also gave a relative viability ([3]; first compound 0.8 µM) of 0.873, a relative viability ([3]; first compound 2.53 µM) of 0.905 and a relative viability ([3]; first compound 8 µM) of 1.1. It also gave a relative viability ([4]; first compound 0.253 µM) of 0.629, a relative viability ([4]; first compound 0.8 µM) of 0.618 and a relative viability ([4]; first compound 2.53 µM) of 0.492. For the same cell line, the relative viability ([4]; first compound 8 µM) was 0.553.

With LC-2-ad the relative viability ([1]; 0.253 µM) was 0.915, the relative viability ([1]; 0.8 µM) was 0.937 and the relative viability ([1]; 2.53 µM) was 1. For the same cell line, the relative viability ([1]; 8 µM) was 0.977, the relative viability ([2]; first compound 0.253 µM) was 0.217 and the relative viability ([2]; first compound 0.8 µM) was 0.433. It also gave a relative viability ([2]; first compound 2.53 µM) of 0.437, a relative viability ([2]; first compound 8 µM) of 0.537 and a relative viability ([3]; first compound 0.253 µM) of 0.663. The relative viability ([3]; first compound 0.8 µM) was 0.754, the relative viability ([3]; first compound 2.53 µM) was 0.698 and the relative viability ([3]; first compound 8 µM) was 0.721. For the same cell line, the relative viability ([4]; first compound 0.253 µM) was 0.811, the relative viability ([4]; first compound 0.8 µM) was 0.805 and the relative viability ([4]; first compound 2.53 µM) was 0.782. For the same cell line, the relative viability ([4]; first compound 8 µM) was 0.899, the relative viability ([5]; first compound 0.253 µM) was 0.926 and the relative viability ([5]; first compound 0.8 µM) was 0.938. The relative viability ([5]; first compound 2.53 µM) was 1.12 and the relative viability ([5]; first compound 8 µM) was 1.11.

With LCLC-97TM1 the relative viability ([1]; 0.253 µM) was 0.936, the relative viability ([1]; 0.8 µM) was 0.792 and the relative viability ([1]; 2.53 µM) was 0.977. For the same cell line, the relative viability ([1]; 8 µM) was 0.879, the relative viability ([2]; first compound 0.253 µM) was 0.366 and the relative viability ([2]; first compound 8 µM) was 0.316. It also gave a relative viability ([3]; first compound 0.253 µM) of 0.711, a relative viability ([3]; first compound 0.8 µM) of 0.752 and a relative viability ([3]; first compound 2.53 µM) of 0.634. For the same cell line, the relative viability ([3]; first compound 8 µM) was 0.773, the relative viability ([4]; first compound 0.253 µM) was 0.196 and the relative viability ([4]; first compound 8 µM) was 0.218. For the same cell line, the relative viability ([5]; first compound 0.253 µM) was 0.678, the relative viability ([5]; first compound 0.8 µM) was 0.845 and the relative viability ([5]; first compound 2.53 µM) was 0.766. For the same cell line, the relative viability ([5]; first compound 8 µM) was 0.799.

For LCLC-103H, the relative viability ([1]; 0.253 µM) was 1.02, the relative viability ([1]; 0.8 µM) was 0.928 and the relative viability ([1]; 2.53 µM) was 0.924. The relative viability ([1]; 8 µM) was 0.999, the relative viability ([2]; first compound 0.253 µM) was 1.02 and the relative viability ([2]; first compound 0.8 µM) was 1.07. It also gave a relative viability ([2]; first compound 2.53 µM) of 1.02, a relative viability ([2]; first compound 8 µM) of 1.02 and a relative viability ([3]; first compound 0.253 µM) of 0.798. The relative viability ([3]; first compound 0.8 µM) was 0.806, the relative viability ([3]; first compound 2.53 µM) was 0.761 and the relative viability ([3]; first compound 8 µM) was 0.817. For the same cell line, the relative viability ([4]; first compound 0.253 µM) was 1.13, the relative viability ([4]; first compound 0.8 µM) was 1.03 and the relative viability ([4]; first compound 2.53 µM) was 1.07. It also gave a relative viability ([4]; first compound 8 µM) of 1.01, a relative viability ([5]; first compound 0.253 µM) of 0.916 and a relative viability ([5]; first compound 0.8 µM) of 0.956. It also gave a relative viability ([5]; first compound 2.53 µM) of 0.958 and a relative viability ([5]; first compound 8 µM) of 1.12.

LK-2 gave a relative viability ([1]; 0.253 µM) of 0.979, a relative viability ([1]; 0.8 µM) of 0.981 and a relative viability ([1]; 2.53 µM) of 1.03. For the same cell line, the relative viability ([1]; 8 µM) was 1.04, the relative viability ([2]; first compound 0.253 µM) was 0.412 and the relative viability ([2]; first compound 0.8 µM) was 0.226. For the same cell line, the relative viability ([2]; first compound 2.53 µM) was 0.204, the relative viability ([2]; first compound 8 µM) was 0.153 and the relative viability ([3]; first compound 0.253 µM) was 0.286. It also gave a relative viability ([3]; first compound 0.8 µM) of 0.377, a relative viability ([3]; first compound 2.53 µM) of 0.307 and a relative viability ([3]; first compound 8 µM) of 0.302. The relative viability ([4]; first compound 0.253 µM) was 0.575, the relative viability ([4]; first compound 0.8 µM) was 0.612 and the relative viability ([4]; first compound 2.53 µM) was 0.655. It also gave a relative viability ([4]; first compound 8 µM) of 0.616, a relative viability ([5]; first compound 0.253 µM) of 0.181 and a relative viability ([5]; first compound 0.8 µM) of 0.202. For the same cell line, the relative viability ([5]; first compound 2.53 µM) was 0.175 and the relative viability ([5]; first compound 8 µM) was 0.199.

Reference: the supplement of paper PMC10307832
